{
  "source": "patent US11806407B2",
  "about": "“Refillable drug delivery by affinity homing” (UNIVERSITY OF NOTRE DAME DU LAC, priority 2018, dated 2023)",
  "key": {"[1]": {"conditions": "rats; cited from earlier work"}, "[2]": {"conditions": "cited from earlier work"}, "[3]": {"assay": "Competition 1H-NMR to determine Keq of guests for CB[7]", "type": "binding", "description": "Determination of Keq by ^1H-NMR competition experiments. ^1H-NMR competition experiments were performed on a 500 MHz Bruker NMR spectrometer, according to the method described by Isaacs and colleagues. Briefly, NMR samples were prepared at three different ratios of a) a model compound for the PEG-appended guest, b) a competitive guest with a previously reported binding constant, and c) free unmodified CB[7]. Samples were prepared in D2O and allowed to reach equilibrium for times ranging from ˜30 minutes for the weakest guest to 4 days for the strongest guests. Equilibrium was verified by tracking the measured ^1H-NMR resonances until the spectra became constant. ^1H-NMR spectra were then acquired for each sample. […] The concentrations of the bound and free guest were obtained by this method, also yielding the concentration for the bound and the free form of the competing guest as well. In these equilibrium mixture, the Krel values were calculated using the relationships below. Krel values for 3 independent experiments with varying and known ratios of each of three components were averaged to obtain the final estimated Keq values.\n[formula] Krel can alternatively be expressed as follows:\n[formula] Rearranging yields the following expression for Keq: Krel,test=Krel,test/known×Keq,known"}, "[4]": {"conditions": "on the basis of fluorescence"}, "[5]": {"conditions": "known competitor or probe guests, cited from earlier work"}, "MDA-MB-231 cells": {"system": "MDA-MB-231 cells", "assay": "MTT in vitro cytotoxicity assay", "type": "cell-based", "conditions": "Homo sapiens, 72 hrs", "description": "In Vitro Drug Functional Assay. […] Briefly, MDA-MB-231 cells were seeded in 96 well plates at a density of 20,000 cells per well in 200 μL complete growth media (DMEM with 10% FBS) and cultured for 24 hrs. Assorted concentrations of Fc-Hdz-Dox, Me-Hdz-Dox and free doxorubicin were prepared in fresh growth media were prepared and added to each well. The cells were incubated for 72 hrs. Controls consisted of cells grown in the same volume of normal media, and background was collected from wells with media only. The media in each well were replaced with 100 uL of 3-(4,5-dimethylthiazol-2-yl)-2,5-diphenyltetrazolium bromide (MTT) salt in PBS solution at a concentration of 2 mg/mL. After incubation at 37° C. for 1 hr, the supernatant was replaced with 100 μL of dimethyl sulfoxide (DMSO) and plates were agitated for 15 minutes at room temperature. Absorbance readings were collected on a TECAN Infinite M200 PRO microplate reader at 570 nm. Results were expressed as viability relative to the cell number in the untreated wells. Samples were fit to a standard dose-response function (GraphPad Prism v8) to extract the IC50 for each compound."}, "[6]": {"conditions": "mice, i.p., RTECS database; cited from earlier work"}, "MDA-MB-231 (luc+) tumor": {"system": "MDA-MB-231 (luc+) tumor", "assay": "In vivo tumor model with hydrogel adjacent to the tumor", "parameters": "species or system mice", "conditions": "3 mg/kg/day doxorubicin equivalent, three consecutive days", "description": "(§1) In Vivo Tumor Model. Luciferase-expressing MDA-MB-231 cells (Gen Target Inc) were received and passaged 3 times under sterile conditions in standard growth media (DMEM with 10% FBS). Tumors were induced by the injection of 106 cells suspended in 50% growth factor-reduced Matrigel (BD Biosciences) to a total volume of 200 μL (100 μL PBS and 100 μL Matrigel) subcutaneously onto the shaved right flank of NSG mice under sterile conditions. After 14 days, mice without palpable tumors were culled from the study. […] This day was considered as ‘day 0’ throughout the study. One day after gel injection (day 1), tumors started being tracked using in vivo bioluminescence imaging using an IVIS Lumina Imager. Mice were intraperitoneally injected with 0.1 ml of 30 mg/ml D-Luciferin in 1×DPBS 10 min before imaging, determined from control experiments to be sufficient to capture luminescent signal at its plateau. Mice were randomized into groups. Treated animals received Fc-Hdz-Dox or Me-Hdz-Dox (6 mg/kg Dox-equivalent dose) by i.p. injection in 0.1 ml saline 1, 2, and 3 days after hydrogel application. PBS was injected in the same way into control animals. Throughout the study, in vivo bioluminescence imaging and body weight was collected for treated mice every three days. At day 28, mice were euthanized and tumors were excised and weighed."}, "[7]": {"assay": "Weight, survival and morbidity in the tumor studies", "conditions": "3 mg/kg/day doxorubicin equivalent, three consecutive days", "description": "as §1"}, "[8]": {"assay": "NMR of bupivacaine bound to CB[7]", "type": "binding", "conditions": "preliminary, based on prior experience"}, "[9]": {"assay": "Solubility of bupivacaine alone and with CB[7]", "type": "physicochemical"}},
  "note": "Like-named read-outs stand apart in the source and are kept apart here.",
  "data": [
    {"compound": "cucurbit[7]uril [CB[7]]", "values": [
      {"measurement": "LD50", "setting": "[1]", "value": "> 250", "unit": "mg/kg"},
      {"measurement": "degradation in vivo", "setting": "[2]", "value": "not appreciably degraded in vivo"}
    ]},
    {"compound": "CN1/C(=C/C=C/C=C/C2=[N+](CCCCCC(=O)NCCC(=O)NC34CC5CC(CC(C5)C3)C4)c3ccc(S(=O)(=O)[O-])cc3C2(C)C)C(C)(C)c2cc(S(=O)(=O)O)ccc21", "note": "[Ad-Am-Cy5]", "values": [
      {"measurement": "Keq for binding to CB[7]", "setting": "[3]; competition 1H-NMR in D2O, association constant", "value": "2.1e+10", "unit": "M⁻¹"},
      {"measurement": "fold less accumulation at the hydrogel than the strong conjugate", "setting": "[4]", "value": 3, "unit": "fold"}
    ]},
    {"compound": "NCCCCCCN", "note": "[1,6-diaminohexane]", "values": [
      {"measurement": "Keq for binding to CB[7], literature-reported", "setting": "[5]", "value": "8.9e+07", "unit": "M⁻¹"}
    ]},
    {"compound": "COc1cccc2c1C(=O)c1c(O)c3c(c(O)c1C2=O)C[C@@](O)(C(=O)CO)C[C@@H]3O[C@H]1C[C@H](N)[C@H](O)[C@H](C)O1", "note": "[doxorubicin]", "values": [
      {"measurement": "IC50", "setting": "MDA-MB-231 cells", "value": 490, "unit": "nM"},
      {"measurement": "LD50", "setting": "[6]", "value": 11.2, "unit": "mg/kg"},
      {"measurement": "tumor growth", "setting": "MDA-MB-231 (luc+) tumor", "value": "tumors continued to grow in spite of treatment"},
      {"measurement": "tolerability (weight, survival)", "setting": "[7]", "value": "weight loss and poor survival outcomes"}
    ]},
    {"compound": "NCc1ccc(CN)cc1", "note": "[p-xylylenediamine]", "values": [
      {"measurement": "Keq for binding to CB[7], literature-reported", "setting": "[5]", "value": "1.78e+09", "unit": "M⁻¹"},
      {"measurement": "Keq for binding to CB[7], literature-reported", "setting": "[5]; listed as SM^−1", "value": "~1e+09", "unit": "M⁻¹"},
      {"measurement": "Keq for binding to CB[7], literature-reported", "setting": "[5]; listed as pxylylenediamine", "value": "1.84e+09", "unit": "M⁻¹"}
    ]},
    {"compound": "OC12CC3CC(CC(C3)C1)C2", "note": "[1-adamantanol]", "values": [
      {"measurement": "Keq for binding to CB[7], literature-reported", "setting": "[5]", "value": "2.3e+10", "unit": "M⁻¹"},
      {"measurement": "Keq for binding to CB[7], literature-reported", "setting": "[5]; listed as SM2", "value": "~1e+10", "unit": "M⁻¹"}
    ]},
    {"compound": "CC(=O)NCCC(=O)NC12CC3CC(CC(C3)C1)C2", "note": "[Ada-Am-Ac]", "values": [
      {"measurement": "Krel", "setting": "[3]; model guest relative to competitive guest, average of three competition experiments", "value": 0.89}
    ]},
    {"compound": "CCCCN1CCCCC1C(=O)Nc1c(C)cccc1C", "note": "(stereo not shown) [bupivacaine]", "values": [
      {"measurement": "binding to CB[7]", "setting": "[8]", "value": "~10^8 M^−1"},
      {"measurement": "water solubility", "setting": "[9]; combined with CB[7]", "value": "very good water solubility"},
      {"measurement": "solubility", "setting": "[9]; on its own", "value": "sparingly soluble"}
    ]},
    {"compound": "CN(C)c1ccc2cc3ccc(N(C)C)cc3nc2c1", "note": "[Acridine Orange]", "values": [
      {"measurement": "Keq for binding to CB[7], literature-reported", "setting": "[5]", "value": 200000, "unit": "M⁻¹"}
    ]}
  ]
}
